Measured values published in patent US20220204457A1, “ARGININE GINGIPAIN INHIBITORS” (Cortexyme, Inc., priority 2019, published 2022).

What was measured:
cathepsin V = cathepsin V (Homo sapiens, UniProt O60911); test: cathepsin screen; assay type: biochemical
cathepsin B = cathepsin B (Homo sapiens, UniProt P07858); test: cathepsin screen; assay type: biochemical
Experimental: The method can also be used to assay enzymes including Kgp, trypsin, and cathepsins such as cathepsin B. For Kgp, the substrate can be succinyl-Ala-Phe-Lys-AMC. For trypsin, the buffer can contain 10 mM Tris and 10 mM CaCl2 (pH 8.0), and the substrate can be Z-Gly-Gly-Arg-AMC. For cathepsin B, the buffer can contain 50 mM sodium phosphate, 1 mM EDTA, and 10 mM 2-mercaptoethanol (pH 6.25), and the substrate can be Z-Arg-Arg-AMC.

cathepsin K = target: T1, cathepsin K (Homo sapiens, UniProt P43235); test: cathepsin screen; assay type: biochemical
T1 sequence (P43235 115-329): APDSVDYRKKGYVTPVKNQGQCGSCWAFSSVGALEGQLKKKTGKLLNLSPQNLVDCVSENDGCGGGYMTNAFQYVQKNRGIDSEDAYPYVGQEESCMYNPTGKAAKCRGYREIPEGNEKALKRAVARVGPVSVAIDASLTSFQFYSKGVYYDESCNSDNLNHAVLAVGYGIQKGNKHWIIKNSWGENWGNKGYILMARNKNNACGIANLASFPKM

cathepsin H = target: T2, cathepsin H (Homo sapiens, UniProt P09668); test: cathepsin screen; assay type: biochemical
T2 sequence (P09668 98-335): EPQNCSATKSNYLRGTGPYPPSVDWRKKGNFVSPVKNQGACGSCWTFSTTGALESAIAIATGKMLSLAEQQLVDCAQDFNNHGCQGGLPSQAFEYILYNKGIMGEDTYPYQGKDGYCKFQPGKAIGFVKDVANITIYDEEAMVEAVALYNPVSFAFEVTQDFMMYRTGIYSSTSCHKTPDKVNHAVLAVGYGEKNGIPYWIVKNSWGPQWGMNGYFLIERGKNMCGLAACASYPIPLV

cathepsin L = cathepsin L (Homo sapiens, UniProt P07711); test: cathepsin screen; assay type: biochemical
cathepsin S = cathepsin S (Homo sapiens, UniProt P25774); test: cathepsin screen; assay type: biochemical
cathepsin F = target: T3, cathepsin F (Homo sapiens, UniProt Q9UBX1); test: cathepsin screen; assay type: biochemical
T3 sequence (Q9UBX1 271-484): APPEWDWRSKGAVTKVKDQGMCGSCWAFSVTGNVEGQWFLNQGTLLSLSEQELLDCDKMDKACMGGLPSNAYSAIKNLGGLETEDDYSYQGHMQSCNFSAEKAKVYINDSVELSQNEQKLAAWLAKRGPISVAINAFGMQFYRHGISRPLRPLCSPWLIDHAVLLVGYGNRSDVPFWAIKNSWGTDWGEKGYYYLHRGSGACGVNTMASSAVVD

[1] = oral administration of RTV 15 minutes prior to Kyt-36; from U.S. Pat. No. 9,758,473; cited from earlier work

cathepsin L, sequence (P07711 114-333): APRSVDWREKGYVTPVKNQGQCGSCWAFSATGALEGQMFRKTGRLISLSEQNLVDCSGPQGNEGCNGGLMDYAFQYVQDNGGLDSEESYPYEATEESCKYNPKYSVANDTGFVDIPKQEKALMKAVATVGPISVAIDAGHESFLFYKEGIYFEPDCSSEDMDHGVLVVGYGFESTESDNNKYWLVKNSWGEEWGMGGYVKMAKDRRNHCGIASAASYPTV
cathepsin S, sequence (P25774 115-331): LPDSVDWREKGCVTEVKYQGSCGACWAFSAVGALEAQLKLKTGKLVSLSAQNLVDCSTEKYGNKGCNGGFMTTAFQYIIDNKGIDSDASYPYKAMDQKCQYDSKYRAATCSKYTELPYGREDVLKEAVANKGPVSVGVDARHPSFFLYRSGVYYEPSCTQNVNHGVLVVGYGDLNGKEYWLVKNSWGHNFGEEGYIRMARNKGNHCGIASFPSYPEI
cathepsin V, sequence (O60911 114-334): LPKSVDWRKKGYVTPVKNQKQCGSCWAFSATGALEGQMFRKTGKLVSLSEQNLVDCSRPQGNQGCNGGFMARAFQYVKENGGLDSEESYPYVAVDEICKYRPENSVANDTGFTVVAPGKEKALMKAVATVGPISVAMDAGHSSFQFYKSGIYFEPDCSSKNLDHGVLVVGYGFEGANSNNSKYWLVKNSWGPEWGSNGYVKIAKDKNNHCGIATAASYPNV

SMILES: COC(C)(C)C(=O)N[C@@H](CCCNC(=N)N)C(=O)COC(C(F)(F)F)C(F)(F)F [Compound 1, (S)-N-(6-guanidino-1-((1,1,1,3,3,3-hexafluoropropan-2-yl)oxy)-2-oxohexan-3-yl)-2-methoxy-2-methylpropanamide]
- IC50 (cathepsin V): > 10 µM
- IC50 (cathepsin B): > 10 µM
- IC50 (cathepsin K): > 10 µM
- IC50 (cathepsin H): > 10 µM
- IC50 (cathepsin L): > 10 µM
- IC50 (cathepsin S): > 10 µM
- IC50 (cathepsin F): > 10 µM

SMILES: CN(NC(=O)CC[C@H](NC(=O)OCc1ccccc1)C(=O)N[C@@H](CCCCN)C(=O)C(=O)NCc1ccccc1)c1ccccc1 [Kyt-36]
- half-life [1]: increases the half-life
